In general, IC50 refers to the concentration at which inhibition is half-maximal.

One assay deals with T1, VEGFR2 (KDR) (Homo sapiens, UniProt P35968).
T1 construct: made in house; host or cells: Sf9 cells (Spodoptera frugiperda), baculovirus (Bac-to-Bac)
Kind of assay: In vitro receptor tyrosine kinase assay (VEGF receptor KDR), DELFIA. In kind it is biochemical. The note with it: recombinant GST-VEGFR2 catalytic domain, ATP 0.6 uM, enzyme 5 nM. The text has this:
In Vitro Receptor Tyrosine Kinase Assay (VEGF Receptor KDR)
This test measures the ability of compounds to inhibit the enzymatic activity of recombinant human VEGF receptor enzymatic activity.
A 1.6-kb cDNA corresponding to the catalytic domain of VEGFR2 (KDR) (Genbank accession number AF035121 amino acid 806 to 1356) is cloned into the Pst I site of the pDEST20 Gateway vector (Invitrogen) for the production of a GST-tagged version of that enzyme. This constuct is used to generate recombinant baculovirus using the Bac-to-Bac™ system according to the manucfacturer's instructions (Invitrogen).
The GST-VEGFR2806-1356 protein is expressed in Sf9 cells (Spodoptera frugiperda) upon infection with recombinant baculovirus construct. Briefly, Sf9 cells grown in suspension and maintained in serum-free medium (Sf900 II supplemented with gentamycin) at a cell density of about 2×10^6 cells/ml are infected with the above-mentioned viruses at a multiplicity of infection (MOI) of 0.1 during 72 hours at 27° C. with agitation at 120 rpm on a rotary shaker. Infected cells are harvested by centrifugation at 398 g for 15 min. Cell pellets are frozen at −80° C. until purification is performed.
All steps described in cell extraction and purification are performed at 4° C. Frozen Sf9 cell pellets infected with the GST-VEGFR2806-1356 recombinant baculovirus are thawed and gently resuspended in Buffer A (PBS pH 7.3 supplemented with 1 μg/ml pepstatin, 2 μg/ml Aprotinin and leupeptin, 50 μg/ml PMSF, 50 μg/ml TLCK and 10 μM E64 and 0.5 mM DTT) using 3 ml of buffer per gram of cells. Suspension is Dounce homogenized and 1% Triton X-100 is added to the homogenate after which it is centrifuged at 22500 g, 30 min., 4° C. The supernatant (cell extract) is used as starting material for purification of GST-VEGFR2806-1356.
The supernatant is loaded onto a GST-agarose column (Sigma) equilibrated with PBS pH 7.3. Following a four column volume (CV) wash with PBS pH 7.3+1% Triton X-100 and 4 CV wash with buffer B (50 mM Tris pH 8.0, 20% glycerol and 100mM NaCl), bound proteins are step eluted with 5 CV of buffer B supplemented with 5 mM DTT and 15 mM glutathion. GST-VEGFR2806-1356 enriched fractions from this chromatography step are pooled based on U.V. trace i.e. fractions with high O.D.280. Final GST-VEGFR2806-1356 protein preparations concentrations are about 0.7 mg/ml with purity approximating 70%. Purified GST-VEGFR2806-1356 protein stocks are aliquoted and frozen at −80° C. prior to use in enzymatic assay.
Inhibition of VEGFR/KDR is measured in a DELFIA™ assay (Perkin Elmer). The substrate poly(Glu4, Tyr) is immobilized onto black high-binding polystyrene 96-well plates. The coated plates are washed and stored at 4° C. During the assay, the enzyme is pre-incubated with inhibitor and Mg-ATP on ice in polypropylene 96-well plates for 4 minutes, and then transferred to the coated plates. The subsequent kinase reaction takes place at 30° C. for 10-30 minutes. ATP concentrations in the assay are 0.6 uM for VEGFR/KDR (2× the Km). Enzyme concentration is 5 nM. After incubation, the kinase reactions are quenched with EDTA and the plates are washed. Phosphorylated product is detected by incubation with Europium-labeled anti-phosphotyrosine MoAb. After washing the plates, bound MoAb is detected by time-resolved fluorescence in a Gemini SpectraMax reader (Molecular Devices). Compounds are evaluated over a range of concentrations and IC50's (concentration of compounds giving 50% inhibition of enzymatic activity) are determined. In the table, “a” indicates inhibitory activity at a concentration of less than 250 nanomolar; “b” indicates inhibitory activity at a concentration ≧250 but <500 nanomolar, “c” indicates inhibitory activity at ≧500 but <1000 nanomolar; and “d” indicates inhibitory activity ≧1000 nanomolar.

For assay [1], the system named is VEGF-dependent Erk phosphorylation in HUVEC cells. As to the kind of experiment: VEGF-dependent Erk phosphorylation. In kind it is cell-based. The conditions noted are these: Homo sapiens, 1.5 h compound, VEGF165 150 ng/ml, phospho ERK1/2 Western blot. The text has this: VEGF-Dependent Erk Phosphorylation
HUVEC cells were purchased from Cambrex Bio Science Walkersville, Inc and cultured according to the vendor's instructions. The full-length coding sequence of VEGF165 was cloned using the Gateway Cloning Technology (Invitrogen) for baculovirus expression Sf9 cells. VEGF165 was purified from conditioned media using a NaCl gradient elution from a HiTrap heparin column (GE Healthcare Life Sciences) followed by an imidazole gradient elution from a HiTrap chelating column (GE Healthcare Life Sciences), then buffer stored in PBS supplemented with 0.1% BSA and filter sterilized
Cells were seeded at 8000 cells/well of a 96 wells plate and grown for 48 hours. Cells were then grown overnight in serum and growth factor-free medium and exposed for 1.5 h to compounds dilutions. Following a 15 min incubation in medium, VEGF165 (150 ng/ml) cells were lysed in ice-cold lysis buffer (50 mM HEPES, pH 7.4, 150 mM NaCl, 1.5 mM MgCl2, 1% Triton X-100, 10% glycerol) containing 1 mM 4-(2 aminoethyl)benzenesulfonyl fluoride hydrochloride, 200 μM sodium orthovanadate, 1 mM sodium fluoride, 10 μg/mL leupeptin, 10 μg/mL aprotinin, 1 μg/mL pepstatin and 50 μg/mL Na-p-tosyl-L-lysine chloromethyl ketone hydrochloride and processed as Western blots to detect anti-phospho ERK1/2 (T202/Y204) (Cell Signaling Technologies).
lysates samples from single treatment wells were separated on 5-20% SDS-PAGE gels and immunobloting was performed using Immobilon polyvinylidene difluoride membranes (Amersham) according to the manufacturer's instructions.
(In western blotting, separated proteins are transferred to a membrane and probed.)

T1 sequence (P35968 806-1356): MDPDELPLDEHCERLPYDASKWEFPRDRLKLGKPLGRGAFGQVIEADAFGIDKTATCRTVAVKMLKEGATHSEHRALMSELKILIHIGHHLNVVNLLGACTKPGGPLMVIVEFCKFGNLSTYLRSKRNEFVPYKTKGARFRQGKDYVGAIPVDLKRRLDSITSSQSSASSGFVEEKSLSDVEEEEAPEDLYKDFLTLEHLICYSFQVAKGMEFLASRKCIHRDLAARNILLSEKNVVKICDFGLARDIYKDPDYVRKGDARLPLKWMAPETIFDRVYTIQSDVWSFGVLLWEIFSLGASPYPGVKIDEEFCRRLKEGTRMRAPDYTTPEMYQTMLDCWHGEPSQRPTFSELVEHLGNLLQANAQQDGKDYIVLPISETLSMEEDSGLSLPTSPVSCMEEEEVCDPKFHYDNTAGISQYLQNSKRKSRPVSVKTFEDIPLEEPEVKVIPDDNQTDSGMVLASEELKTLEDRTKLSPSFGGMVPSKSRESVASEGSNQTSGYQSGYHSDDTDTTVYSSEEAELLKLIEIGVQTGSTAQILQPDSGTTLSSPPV

Take `COCCNCc1cccc(-c2cc3nccc(Oc4ccc(NC(=O)NC5CC5)cc4F)c3s2)n1`: the IC50 (on VEGFR2 (KDR); in assay [1]) was below 250 nM throughout.

For the molecule `COCCNCc1ccc(-c2cc3nccc(Oc4ccc(NC(=O)Nc5cccc(C(N)=O)c5)cc4F)c3s2)nc1`, the IC50 (on VEGFR2 (KDR); in assay [1]) was below 250 nM each time.

As to `COCCNCc1ccc(-c2cc3nccc(Oc4ccc(NC(=O)Nc5cccc(S(C)(=O)=O)c5)cc4F)c3s2)nc1`, the IC50 (at VEGFR2 (KDR); in assay [1]) was below 250 nM throughout.

For the molecule `COCCNCc1cnc(-c2cc3nccc(Oc4ccc(NC(=O)Nc5cc(C(F)(F)F)ccc5F)cc4F)c3s2)n1C`, the IC50 (on VEGFR2 (KDR); in assay [1]) was below 250 nM each time.

As for `COCCNCc1cnc(-c2cc3nccc(Oc4ccc(NC(=O)Nc5ccc(OC)cc5)cc4F)c3s2)n1C`, the IC50 (on VEGFR2 (KDR); in assay [1]) was below 250 nM in each case.

As for `COCCNCc1cnc(-c2cc3nccc(Oc4ccc(NC(=O)Nc5cccc(C(N)=O)c5)cc4F)c3s2)n1C`, the IC50 (at VEGFR2 (KDR); in assay [1]) was below 250 nM in each case.

In the case of `COCCNCc1ccc(-c2cc3nccc(Oc4ccc(NC(=O)C5CC5)cc4F)c3s2)nc1`, the IC50 on VEGFR2 (KDR) lay in the range of 250 to 500 nM.

Turning to `COCCNCc1ccc(-c2cc3nccc(Oc4ccc(NC(=O)Nc5cccc(C(=O)OC)c5)cc4F)c3s2)nc1`, the IC50 at VEGFR2 (KDR) was below 250 nM.

As for `CNC(=O)c1cccc(NC(=O)Nc2ccc(Oc3ccnc4cc(-c5ccc(CNCCOC)cn5)sc34)c(F)c2)c1`, at VEGFR2 (KDR), the IC50 was below 250 nM.

Turning to `COCCNCc1ccc(-c2cc3nccc(Oc4ccc(NC(=O)N[C@@H]5CCOC5)cc4F)c3s2)nc1`, the values for the IC50 (at VEGFR2 (KDR); in assay [1]) were at least 1000 nM and below 250 nM, respectively.

On to `COCCNCc1ccc(-c2cc3nccc(Oc4ccc(NC(=O)CC(=O)NC5CCC5)cc4F)c3s2)nc1`, for which the IC50 at VEGFR2 (KDR) was 250 to 500 nM; in assay [1] it was below 250 nM.

In the case of `COCCNCc1ccc(-c2cc3nccc(Oc4ccc(NC(=O)OC5CCCCC5)cc4F)c3s2)nc1`, the IC50 on VEGFR2 (KDR) was at least 1000 nM; in assay [1], below 250 nM.

As to `COCCNCc1ccc(-c2cc3nccc(Oc4ccc(NC(=O)OC5CCC5)cc4F)c3s2)nc1`, the IC50 (at VEGFR2 (KDR); in assay [1]) was below 250 nM in each case.

Turning to `COCCNCc1ccc(-c2cc3nccc(Oc4ccc(NC(=O)N[C@H]5CCOC5)cc4F)c3s2)nc1`, the figures for the IC50 (at VEGFR2 (KDR); in assay [1]) were 500 to 1000 nM and below 250 nM, respectively.

Take `COCCN(Cc1ccc(-c2cc3nccc(Oc4ccc(NC(=O)Nc5cccc(C(N)=O)c5)cc4F)c3s2)nc1)C(C)=O`: the IC50 (on VEGFR2 (KDR); in assay [1]) was below 250 nM in each case.

With `COCCOCCOCCOCCN(Cc1ccc(-c2cc3nccc(Oc4ccc(NC(=O)NC5CC5)cc4F)c3s2)nc1)C(C)=O`, the IC50 (at VEGFR2 (KDR); in assay [1]) was below 250 nM each time.

As to `COCCNCc1ccc(-c2cc3nccc(Oc4ccc(NC(=O)Nc5ccn(C)n5)cc4F)c3s2)nc1`, the IC50 (on VEGFR2 (KDR); in assay [1]) was below 250 nM in each case.

With `COCCNCc1ccc(-c2cc3nccc(Oc4ccc(NC(=O)Nc5cccc(C(=O)N(C)C)c5)cc4F)c3s2)nc1`, the IC50 (on VEGFR2 (KDR); in assay [1]) was below 250 nM throughout.

As to `COCCNCc1ccc(-c2cc3nccc(Oc4ccc(NC(=O)CC(=O)Nc5cccc(C(N)=O)c5)cc4F)c3s2)nc1`, the IC50 on VEGFR2 (KDR) was 250 to 500 nM; in assay [1], below 250 nM.

Turning to `COCCNCc1ccc(-c2cc3nccc(Oc4ccc(NC(=O)CC(=O)Nc5cccc(S(C)(=O)=O)c5)cc4F)c3s2)nc1`, the IC50 (at VEGFR2 (KDR); in assay [1]) was below 250 nM in each case.

Turning to `COCCN(Cc1ccc(-c2cc3nccc(Oc4ccc(NC(=O)Nc5cccc(C(=O)N(C)C)c5)cc4F)c3s2)nc1)C(C)=O`, the IC50 (on VEGFR2 (KDR); in assay [1]) was below 250 nM in each case.

With `COCCNCc1ccc(-c2cc3nccc(Oc4ccc(NC(=O)NC(C)C)cc4F)c3s2)nc1`, the results for the IC50 (at VEGFR2 (KDR); in assay [1]) were 500 to 1000 nM and below 250 nM, respectively.

For `COCCNCc1ccc(-c2cc3nccc(Oc4ccc(NC(=O)Nc5ccc(F)cc5F)cc4F)c3s2)nc1`, the IC50 (at VEGFR2 (KDR); in assay [1]) was below 250 nM in each case.

As for `O=C(Nc1ccc(Oc2ccnc3cc(-c4ccc(C5OCCCO5)cn4)sc23)c(F)c1)NC1CC1`, the IC50 (at VEGFR2 (KDR); in assay [1]) was below 250 nM in each case.

`COCCN(Cc1ccc(-c2cc3nccc(Oc4ccc(NC(=O)Nc5cccc(S(C)(=O)=O)c5)cc4F)c3s2)nc1)C(=O)OC`: the IC50 (on VEGFR2 (KDR); in assay [1]) was below 250 nM throughout.

As for `COC[C@H](C)NCc1ccc(-c2cc3nccc(Oc4ccc(NC(=O)NC5CC5)cc4F)c3s2)nc1`, the IC50 (on VEGFR2 (KDR); in assay [1]) was below 250 nM each time.

With `COCCN(Cc1ccc(-c2cc3nccc(Oc4ccc(NC(=O)NC5CC5)cc4F)c3s2)nc1)C(=O)OC`, the IC50 on VEGFR2 (KDR) is below 250 nM.

Turning to `CCOC(=O)N(CCOC)Cc1ccc(-c2cc3nccc(Oc4ccc(NC(=O)NC5CC5)cc4F)c3s2)nc1`, the IC50 (at VEGFR2 (KDR); in assay [1]) was below 250 nM each time.

With `COCCOCCOCCOCCNCc1ccc(-c2cc3nccc(Oc4ccc(NC(=O)NC5CC5)cc4F)c3s2)nc1` [drawing 129], the concentration for half-maximal inhibition (IC50) (at VEGFR2 (KDR); in assay [1]) was below 250 nM throughout.

Take `COCCNCc1cnc(-c2cc3nccc(Oc4ccc(NC(=O)NC5CC5)cc4F)c3s2)n1C` [drawing 131]: the IC50 (at VEGFR2 (KDR); in assay [1]) was below 250 nM throughout.

Regarding `COCCNCc1cnc(-c2cc3nccc(Oc4ccc(NC(=O)Nc5ccc(F)cc5F)cc4F)c3s2)n1C` [drawing 134], the IC50 (on VEGFR2 (KDR); in assay [1]) was below 250 nM each time.

As to `COCCN(Cc1cnc(-c2cc3nccc(Oc4ccc(NC(=O)NC5CC5)cc4F)c3s2)n1C)S(C)(=O)=O` [drawing 137], the IC50 (on VEGFR2 (KDR); in assay [1]) was below 250 nM in each case.

`COCCN(Cc1ccc(-c2cc3nccc(Oc4ccc(NC(=O)NC5CC5)cc4F)c3s2)nc1)C(=O)[C@H](N)C(C)C` [drawing 143]: the IC50 (at VEGFR2 (KDR); in assay [1]) was below 250 nM in each case.

In the case of `COCCN(Cc1ccc(-c2cc3nccc(Oc4ccc(NC(=O)Nc5cccc(S(C)(=O)=O)c5)cc4F)c3s2)nc1)C(C)=O` [drawing 152], the IC50 (at VEGFR2 (KDR); in assay [1]) was below 250 nM throughout.

For `COCCNCc1ccc(-c2cc3nccc(Oc4ccc(NC(=O)NC5CCC5)cc4F)c3s2)nc1` [drawing 153], the IC50 (on VEGFR2 (KDR); in assay [1]) was below 250 nM each time.

The values are drawn from patent publication US8759522B2, “Inhibitors of protein tyrosine kinase activity” (Methylgene Inc., priority 2008, dated 2014).
